Here are results for nine compounds from patent US20140343017A1, “PYRROLE COMPOUND” (Kabushiki Kaisha Yakult Honsha, priority 2012, published 2014).

Holding throughout (assay): Inhibitory effect on growth of human cancer cells (in vitro), WST-8
Holding throughout (type): cell-based
Background: Tetrazolium assays rely on reduction of a dye to a coloured formazan, in cell work by metabolically active cells.

For test [1], the system named is human colorectal cancer HCT116 cells. Particulars: 96 hours culture. The method, boiled down: (§1)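 Cells seeded at 1000 cells/well in RPMI1640 with 10% FBS, compounds added after overnight culture, then 96 h exposure. Viability by WST-8, about 1 h at 37 °C, 5% CO2, absorbance read at 450 nm.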
Test [2] has as its system human colorectal cancer HT-29 cells. To be noted: 96 hours culture, read-out: IC50 (nM) HT29. The gist of the method:
as §1

The subject of test [3] is human non-small cell lung cancer A549 cells. To be noted: 96 hours culture. The gist of the method: as §1

Structures can show the parent of a compound that is named as a salt. Where two headings read alike, the source gives them in different places.

Usually IC50 stands for the point on the concentration scale where inhibition reaches its midpoint. Consider `CCn1nnc(-c2[nH]c(C)c(C(=O)c3cccc(OCCN)c3)c2C)n1` [Compound 296, (3-(2-aminoethoxy)phenyl)(5-(2-ethyl-2H-tetrazol-5-yl)-2,4-dimethyl-1H-pyrrol-3-yl)methanone hydrochloride], for which the IC50 in test [1] (hydrochloride) was 208 nM; in test [2] (hydrochloride) it was 198 nM; in test [3] (hydrochloride) it was 637 nM.
In the case of `Cc1[nH]c(-c2nnc(CO)o2)c(C)c1C(=O)c1cccc(Br)c1` [Compound 211, (3-bromophenyl) (5-(5-(hydroxymethyl)-1,3,4-oxadiazol-2-yl)-2,4-dimethyl-1H-pyrrol-3-yl)methanone], the IC50 in test [1] (Homo sapiens, HCT-116, 96 h) amounted to 49.1 nM; in test [2] (Homo sapiens, HT-29, 96 h), 44.1 nM; in test [3] (Homo sapiens, A549, 96 h), 183 nM.
`CC(=O)OCCn1nnc(-c2[nH]c(C#N)c(C(=O)c3cccc(Br)c3)c2C)n1` [Compound 132, 2-(5-(4-(3-bromobenzoyl)-5-cyano-3-methyl-1H-pyrrol-2-yl)-2H-tetrazol-2-yl)ethyl acetate]: the IC50 was found to be 167 nM in test [1] (Homo sapiens, HCT-116, 96 h); 179 nM in test [2] (Homo sapiens, HT-29, 96 h); 248 nM in test [3] (Homo sapiens, A549, 96 h).
As for `Cc1[nH]c(-c2nnc(C3CC3C)o2)c(C)c1C(=O)c1cccc(Br)c1` (stereo not drawn) [Compound 190, (3-bromophenyl) (2,4-dimethyl-5-(5-(2-methylcyclopropyl)-1,3,4-oxadiazol-2-yl)-1H-pyrrol-3-yl)methanone], the IC50 in test [1] (Homo sapiens, HCT-116, 96 h) was 219 nM; in test [2] (Homo sapiens, HT-29, 96 h) it was 192 nM; in test [3] (Homo sapiens, A549, 96 h), 266 nM.
As to `Cc1c(-c2nnn(CCO)n2)[nH]c(C(F)F)c1C(=O)c1cccc(Br)c1` [Compound 119, (3-bromophenyl)(2-(difluoromethyl)-5-(2-(2-hydroxyethyl)-2H-tetrazol-5-yl)-4-methyl-1H-pyrrol-3-yl)methanone], the IC50 in test [1] (Homo sapiens, HCT-116, 96 h) stood at 145 nM; in test [2] (Homo sapiens, HT-29, 96 h), 42.6 nM; in test [3] (Homo sapiens, A549, 96 h) it was 50.1 nM.
Consider `CC(=O)OCCn1nnc(-c2[nH]c(C)c(C(=O)c3cccc(Br)c3)c2C)n1` [Compound 104, 2-(5-(4-(3-bromobenzoyl)-3,5-dimethyl-1H-pyrrol-2-yl)-2H-tetrazol-2-yl)ethyl acetate], for which the IC50 in test [1] (Homo sapiens, HCT-116, 96 h) was found to be 8.5 nM; in test [2] (Homo sapiens, HT-29, 96 h), 8.5 nM; in test [3] (Homo sapiens, A549, 96 h), 11 nM.
Turning to `Cc1[nH]c(-c2nnn(CCN)n2)c(C)c1C(=O)c1cccc(Br)c1` [Compound 103, (5-(2-(2-aminoethyl)-2H-tetrazol-5-yl)-2,4-dimethyl-1H-pyrrol-3-yl)(3-bromophenyl)methanone], the IC50 is 182 nM in test [1] (Homo sapiens, HCT-116, 96 h); 43.3 nM in test [2] (Homo sapiens, HT-29, 96 h); 87.8 nM in test [3] (Homo sapiens, A549, 96 h).
In the case of `Cc1[nH]c(-c2nnn(CCO)n2)c(C)c1C(=O)c1cccc(CO)c1` [Compound 163, (5-(2-(2-hydroxyethyl)-2H-tetrazol-5-yl)-2,4-dimethyl-1H-pyrrol-3-yl)(3-(hydroxymethyl)phenyl)methanone], the IC50 was determined as 67.5 nM in test [1] (Homo sapiens, HCT-116, 96 h); 73.8 nM in test [2] (Homo sapiens, HT-29, 96 h); 305 nM in test [3] (Homo sapiens, A549, 96 h).
For `COC(=O)c1[nH]c(-c2nnn(CCO)n2)c(C)c1C(=O)c1cccc(Br)c1` [Compound 137, methyl 3-(3-bromobenzoyl)-5-(2-(2-hydroxyethyl)-2H-tetrazol-5-yl)-4-methyl-1H-pyrrole-2-carboxylate] the same measures were 186 nM, 156 nM and 278 nM.
